Three compounds from paper PMC10216478, “Development of a Non-Peptide Angiotensin II Type 1 Receptor Ligand by Structural Modification of Olmesartan as a Biased Agonist” (Biomedicines, 2023) can be followed below.

A word on the Kd: it is the constant that tells how readily two partners part at equilibrium.

Positions count from the first letter of the chain named.

One assay has as its target T1, AT1 L112A receptor (Rattus norvegicus, UniProt P25095, L112A).
T1 construct: expressed in transfected cells; host or cells: COS7
T1 sequence (P25095 1-359 L112A): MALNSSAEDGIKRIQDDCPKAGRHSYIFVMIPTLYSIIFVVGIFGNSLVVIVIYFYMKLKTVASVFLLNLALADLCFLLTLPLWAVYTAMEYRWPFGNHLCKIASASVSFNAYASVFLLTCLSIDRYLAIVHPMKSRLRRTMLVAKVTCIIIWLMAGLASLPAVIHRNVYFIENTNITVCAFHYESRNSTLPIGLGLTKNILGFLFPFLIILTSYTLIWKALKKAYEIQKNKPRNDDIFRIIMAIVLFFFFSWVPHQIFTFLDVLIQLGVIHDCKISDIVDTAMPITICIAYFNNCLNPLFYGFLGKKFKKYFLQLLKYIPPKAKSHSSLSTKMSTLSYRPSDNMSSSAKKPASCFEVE
In words: Competition binding study, 125I-[Sar1,Ile8]Ang II, AT1 L112A receptor. To be noted: competition with 125I-[Sar1,Ile8]Ang II, n = 3, mean ± standard error, read-out: Binding affinity (Kd). The source says: We mutated four amino acids in transmembrane (TM) III, VI, and VII in the AT1 receptor (L112A, Q257A, Y292A, and N295A receptors). We determined the mutation sites of the AT1 receptor according to ARB, which produced olmesartan derivatives with different interactions and functions toward the AT1 receptor, as previously reported by Zhang et al., since the additional 4-hydroxybenzyl groups of R781253 and R794847 were predicted to extend to a sub-pocket on the bottom of the AT1 receptor ligand-binding pocket consisting of Leu^112 and Gln^257. In addition, since the biased ligand TRV027 induced changes near the NPxxY motif in TM domain 7 that are related to receptor activation, Tyr^292 and Asn^295 in the AT1 receptor were mutated.
The synthetic rat AT1 receptor gene, which was cloned in the shuttle expression vector pMT-2, was used for expression and mutagenesis, as described previously. COS7 cells (No. CRL-1651, ATCC, Manassas, VA, USA) were cultured in 10% fetal bovine serum (FBS) and penicillin- and streptomycin-supplemented Dulbecco’s modified Eagle’s essential medium (PS-DMEM) in 5% CO2 at 37 °C. In the experiments, cells were grown without a cell-growth supplement. To express the AT1 receptor protein, 10 µg of purified plasmid DNA per 10^7 cells was used in the transfection. […] We then analyzed the parameters in transfected cells. […]
The Kd (nM) values of receptor binding were determined with ^125I-[Sar^1, Ile^8]AngII-binding experiments under equilibrium conditions. Binding kinetics were determined following the methods described in the literature. […] Ang II was determined in the presence of a high concentration (10^−6 M) of unlabeled [Sar^1, Ile^8]. […] The radioactivity trapped on the filters was quantified using an automatic γ-counter. The percentage (%) of specific binding of ^125I-[Sar^1, Ile^8]Ang II was calculated using the following formula: 100 × (% total binding of ^125I-[Sar^1, Ile^8]Ang II—nonspecific binding of ^125I-[Sar^1, Ile^8]Ang II)/(% total binding of ^125I-[Sar^1, Ile^8]Ang II).

The target of a further assay is T2, AT1 Q257A receptor (Rattus norvegicus, UniProt P25095, Q257A).
T2 construct: expressed in transfected cells; host or cells: COS7
T2 sequence (P25095 1-359 Q257A): T1 sequence (P25095 1-359 L112A) with A112L, Q257A
Kind of assay: Immunoblotting of ERK 1/2 activation in COS7 cells overexpressing AT1-Q257A receptor. The assay is classed as cell-based. To be noted: 1 µM ligands or 0.1 µM Ang II, 10 min, n = 5, vs. (-). On the procedure:
The synthetic rat AT1 receptor gene, which was cloned in the shuttle expression vector pMT-2, was used for expression and mutagenesis, as described previously. […] In the experiments, cells were grown without a cell-growth supplement. To express the AT1 receptor protein, 10 µg of purified plasmid DNA per 10^7 cells was used in the transfection. Wild-type and mutated AT1 receptors were transiently transfected into cells using Lipofectamine 2000 liposomal reagent (Roche Applied Science, Penzberg, Germany). Cells were plated and grown and were 70–90% confluent at the time of transfection. We incubated plasmid DNA (10 µg)–lipid (10 µL) complexes for 5 min at room temperature and added and incubated the complexes with cells for 24 h. We then analyzed the parameters in transfected cells. […] Transfected cells that had been cultured for 48–72 h were harvested. […]
In in vitro studies, ERK 1/2 activation by 1 µM ligands or 0.1 µM Ang II incubated for 10 min was measured using COS7 cells that overexpressed AT1 wild-type and mutant receptors. ERK activity was measured in cells maintained for 18 h in DMEM containing 0.1% serum. […] We homogenized the cells in lysis buffer plus protease inhibitors and determined the protein concentration using the bicinchoninic acid method. […] The signal was independently quantified by digital image analysis (ImageJ, National Institutes of Health, Bethesda, MD, USA).
(In western blotting, separated proteins are transferred to a membrane and probed.)

For `CCCc1nc(C(C)(C)O)c(C(=O)O)n1Cc1ccc(-c2cc(Cc3ccc(O)cc3)ccc2-c2nnn[nH]2)cc1` [R781253], the Kd at AT1 L112A receptor was 23 ± 7 nM. On to `CCCc1nc(C(C)(C)O)c(C(=O)O)n1Cc1ccc(-c2ccccc2-c2nnn[nH]2)cc1` [Olmesartan, olmesartan], for which the ERK1/2 activation entry at AT1 Q257A receptor is given as “did not change ERK1/2 activation”. Turning to `CCCc1nc(C(C)(C)O)c(C(N)=O)n1Cc1ccc(-c2ccccc2-c2nnn[nH]2)cc1` [R239470], the Kd at AT1 L112A receptor was determined as 37 ± 12 nM.
